The values below come from patent US20230348426A1, “OXOPYRROLIDINE FPR2 AGONISTS” (Bristol-Myers Squibb Company, priority 2020, published 2023).

SMILES strings stand for the structures.

The target of one experiment is human FPR2 (Homo sapiens (Human), UniProt P25090). The experiment is described as follows: FPR2 cyclic adenosine monophosphate (cAMP) assay. Type of experiment: cell-based. Particulars: CHO cells overexpressing human FPR2; forskolin 5 µM; inhibition of cAMP production; read-out: hFPR2 cAMP2 EC50. The method in brief: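 Inhibition of forskolin-driven (5 µM) cAMP, with 200 µM IBMX, measured in human FPR2-expressing CHO cells, 2,000 per well, 30 min at room temperature; compounds tested 0.020 nM to 100 µM in 1% DMSO. HTRF 665/590 ratio converted to cAMP via calibration curve, then 4-parameter fit.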
Chain of human FPR2 (P25090 whole entry): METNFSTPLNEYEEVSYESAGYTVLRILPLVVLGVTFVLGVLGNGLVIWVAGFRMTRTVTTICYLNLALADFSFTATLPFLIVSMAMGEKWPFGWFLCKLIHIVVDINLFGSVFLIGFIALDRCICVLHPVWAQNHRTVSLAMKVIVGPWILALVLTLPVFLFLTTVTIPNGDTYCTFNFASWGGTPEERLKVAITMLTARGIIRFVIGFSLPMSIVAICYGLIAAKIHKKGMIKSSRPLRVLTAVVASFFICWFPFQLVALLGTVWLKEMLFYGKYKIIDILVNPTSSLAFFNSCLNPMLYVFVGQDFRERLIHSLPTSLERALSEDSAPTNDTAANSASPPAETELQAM
A general note: Cyclic AMP is a second messenger, typically raised through Gs and lowered through Gi signalling.

A further experiment has as its target human FPR1 (Homo sapiens (Human), UniProt P21462). The experiment is described as follows: FPR1 cyclic adenosine monophosphate (cAMP) assay. Type of experiment: cell-based. Particulars: CHO cells overexpressing human FPR1; forskolin 10 µM; inhibition of cAMP production; read-out: hFPR1 cAMP EC50. The method in brief:
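Human FPR1-expressing CHO cells were used at 4,000 per well, with compound at 0.020 nM–100 µM in 1% DMSO. Potency came from a 4-parameter logistic fit.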

Chain of human FPR1 (P21462 whole entry): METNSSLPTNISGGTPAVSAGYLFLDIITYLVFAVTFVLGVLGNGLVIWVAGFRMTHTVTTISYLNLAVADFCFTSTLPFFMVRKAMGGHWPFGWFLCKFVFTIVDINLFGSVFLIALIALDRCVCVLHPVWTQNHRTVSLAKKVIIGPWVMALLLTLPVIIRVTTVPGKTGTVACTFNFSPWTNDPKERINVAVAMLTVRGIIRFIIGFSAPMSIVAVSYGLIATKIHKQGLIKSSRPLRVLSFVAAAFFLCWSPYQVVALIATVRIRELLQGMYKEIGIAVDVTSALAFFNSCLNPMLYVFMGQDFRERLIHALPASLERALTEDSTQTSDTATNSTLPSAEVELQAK

On to `COc1cc(F)c([C@@H]2CN(c3ccnn(CCC(F)(F)F)c3=O)C(=O)[C@H]2NC(=O)c2ccc(OC(F)F)cc2)c(F)c1` [Example 468], for which the concentration giving a half-maximal response (EC50) (in general, the concentration that produces a half-maximal response) stood at 2.1 nM on human FPR2 and 18 nM at human FPR1.
Consider `COc1cc(F)c([C@@H]2CN(c3c(C)ccn(CCS(C)(=O)=O)c3=O)C(=O)[C@H]2NC(=O)c2ccc(OC(F)(F)F)cc2)c(F)c1` [Example 469], for which the EC50 on human FPR2 stood at 1.4 nM; at human FPR1, 2 nM.
Take `COc1cc(F)c([C@@H]2CN(c3c(C)ccn(CCS(C)(=O)=O)c3=O)C(=O)[C@H]2NC(=O)c2ccc(OC(F)F)cc2)c(F)c1` [Example 470]: the EC50 on human FPR2 stood at 1.9 nM; at human FPR1, 8 nM.
For `COCCn1ncc(C)c(N2C[C@@H](c3c(F)cc(OC)cc3F)[C@H](NC(=O)c3ccc(OC(F)(F)F)cc3)C2=O)c1=O` [Example 471], the values for the concentration giving a half-maximal response (EC50) at human FPR2 and at human FPR1 were 1.1 nM and 2 nM, respectively.
The corresponding values for `COCCn1ncc(C)c(N2C[C@@H](c3c(F)cc(OC)cc3F)[C@H](NC(=O)c3ccc(OC(F)F)cc3)C2=O)c1=O` [Example 472] are 1.2 nM and 1.7 nM.
In the case of `COc1cc(F)c([C@@H]2CN(c3ccnn(CC(F)F)c3=O)C(=O)[C@H]2NC(=O)c2ccc(OC(F)(F)F)cc2)c(F)c1` [Example 473], the concentration for a half-maximal effect (EC50) worked out at 1.8 nM on human FPR2 and 2 nM at human FPR1.
Taken in the same sequence, the figures for `COc1cc(F)c([C@@H]2CN(c3ccnn(CC(F)F)c3=O)C(=O)[C@H]2NC(=O)c2ccc(OC(F)F)cc2)c(F)c1` [Example 474] were 2.1 nM and 4 nM.
As for `COc1cc(F)c([C@@H]2CN(c3ccnn(CC(O)C(F)(F)F)c3=O)C(=O)[C@H]2NC(=O)c2ccc(OC(F)F)cc2)c(F)c1` (some centres unmarked) [Example 475], the EC50 on human FPR2 turned out to be 2 nM; on human FPR1, 20 nM.
The corresponding values for `COCC(CO)n1nccc(N2C[C@@H](c3c(F)cc(OC)cc3F)[C@H](NC(=O)c3ccc(OC(F)F)cc3)C2=O)c1=O` (some centres unmarked) [Example 476] are 1.7 nM and 14 nM.
For the compound `COCC(CO)n1nccc(N2C[C@@H](c3c(F)cc(OC)cc3F)[C@H](NC(=O)c3ccc(Cl)cc3)C2=O)c1=O` (some centres unmarked) [Example 477], the EC50 on human FPR2 is 1 nM; on human FPR1 it was 13 nM.
As to `COc1cc(F)c([C@@H]2CN(c3c(C)ccn(C4CCOCC4)c3=O)C(=O)[C@H]2NC(=O)c2ccc(OC(F)(F)F)cc2)c(F)c1` [Example 478], the EC50 at human FPR2 was 5.9 nM; at human FPR1 it was 1 nM.
Taken in the same sequence, the figures for `COc1cc(F)c([C@@H]2CN(c3c(C)ccn(C4CCOC4)c3=O)C(=O)[C@H]2NC(=O)c2ccc(OC(F)F)cc2)c(F)c1` (some centres unmarked) [Example 479] were 9.4 nM and 5 nM.
In the case of `COc1cc(F)c([C@@H]2CN(c3nccc(N4CCC(C)(O)C4)c3C(F)(F)F)C(=O)[C@H]2NC(=O)c2ccc(Cl)cc2)c(F)c1` (some centres unmarked) [Example 480], the values for the 50% effective concentration (EC50) on human FPR2 and on human FPR1 were 5.7 nM and 300 nM, respectively.
Taken in the same sequence, the figures for `COc1cc(F)c([C@@H]2CN(c3nccc(N4CCN5CCCC5C4)c3C(F)(F)F)C(=O)[C@H]2NC(=O)c2ccc(Cl)cc2)c(F)c1` (some centres unmarked) [Example 481] were 1.2 nM and 2200 nM.
Taken in the same sequence, the figures for `COCC(C(=O)N1CC2(COC2)C1)n1cccc(N2C[C@@H](c3c(F)cc(OC)cc3F)[C@H](NC(=O)c3ccc(OC(F)(F)F)cc3)C2=O)c1=O` (some centres unmarked) [Example 482] were 2.5 nM and 1 nM.
The corresponding values for `COc1cc(F)c([C@@H]2CN(c3c(C)ccn(CC(O)C(F)(F)F)c3=O)C(=O)[C@H]2NC(=O)c2ccc(Cl)cc2)c(F)c1` (some centres unmarked) [Example 483] are 5.6 nM and 16 nM.
In the case of `COCCN1CCCC(N2C[C@@H](c3c(F)cc(OC)cc3F)[C@H](NC(=O)c3ccc(OC(F)(F)F)cc3)C2=O)C1=O` (some centres unmarked) [Example 484], the figures for the half-maximal effective concentration (EC50) on human FPR2 and at human FPR1 were 3 nM and 420 nM, respectively.
Taken in the same sequence, the figures for `COCC(C(=O)N1CCCC1)n1cccc(N2C[C@@H](c3c(F)cc(OC)cc3F)[C@H](NC(=O)c3ccc(OC(F)F)cc3)C2=O)c1=O` (some centres unmarked) [Example 485] were 1.7 nM and 2 nM.
On to `COc1cc(F)c([C@@H]2CN(c3cncn(CC(O)C(F)(F)F)c3=O)C(=O)[C@H]2NC(=O)c2ccc(Cl)cc2)c(F)c1` (some centres unmarked) [Example 486], for which the EC50 stood at 4.3 nM on human FPR2 and 36 nM at human FPR1.
In the case of `COc1cc(F)c([C@@H]2CN(c3cncn(CCC(F)(F)F)c3=O)C(=O)[C@H]2NC(=O)c2ccc(OC(F)F)cc2)c(F)c1` [Example 487], the half-maximal effective concentration (EC50) on human FPR2 came out at 1.9 nM; at human FPR1, 720 nM.
Turning to `COc1cc(F)c([C@@H]2CN(c3cncn(CCO)c3=O)C(=O)[C@H]2NC(=O)c2ccc(OC(F)F)cc2)c(F)c1` [Example 488], the figures for the 50% effective concentration (EC50) on human FPR2 and on human FPR1 were 2.6 nM and 790 nM, respectively.
Taken in the same sequence, the figures for `COc1cc(F)c([C@@H]2CN(c3c(C)ccn(CC(O)C(F)(F)F)c3=O)C(=O)[C@H]2NC(=O)c2ccc(OC(F)F)cc2)c(F)c1` (some centres unmarked) [Example 489] were 0.7 nM and 5 nM.
Taken in the same sequence, the figures for `COc1cc(F)c([C@@H]2CN(c3c(C)ccn(C(F)(F)CO)c3=O)C(=O)[C@H]2NC(=O)c2ccc(OC(F)(F)F)cc2)c(F)c1` [Example 490] were 1 nM and 1 nM.
The corresponding values for `COCCN1CCC(c2cc(OC)cc(N3C(=O)[C@@H](NC(=O)c4ccc(OC(F)F)cc4)[C@H](c4c(F)cc(OC)cc4F)[C@@H]3C)n2)CC1` [Example 491] are 1.8 nM and over 5000 nM.
As to `COc1cc(C2CCN(CCF)CC2)nc(N2C[C@@H](c3c(F)cc(OC)cc3F)[C@H](NC(=O)c3ccc(OC(F)F)cc3)C2=O)c1` [Example 492], the results for the EC50 at human FPR2 and on human FPR1 were 8.7 nM and over 5000 nM, respectively.
Taken in the same sequence, the figures for `COc1cc(F)c([C@@H]2CN(c3cccn4cc(C)nc34)C(=O)[C@H]2NC(=O)c2ccc(Cl)cc2)c(F)c1` [Example 493] were 2.2 nM and 270 nM.
As to `COc1cc(F)c([C@@H]2CN(c3cccn4cc(CO)nc34)C(=O)[C@H]2NC(=O)c2ccc(Cl)cc2)c(F)c1` [Example 494], the concentration giving a half-maximal response (EC50) on human FPR2 turned out to be 3.4 nM; on human FPR1 it was 440 nM.
The corresponding values for `COc1cc(F)c([C@@H]2CN(c3cccn4cc(C5CC5)nc34)C(=O)[C@H]2NC(=O)c2ccc(Cl)cc2)c(F)c1` [Example 495] are 1.6 nM and 860 nM.
Taken in the same sequence, the figures for `COc1cc(F)c([C@@H]2CN(c3cccn4cc(C(C)C)nc34)C(=O)[C@H]2NC(=O)c2ccc(Cl)cc2)c(F)c1` [Example 496] were 3 nM and 1100 nM.
Taken in the same sequence, the figures for `COc1cc(F)c([C@@H]2CN(c3cccn4cc(C(F)(F)F)nc34)C(=O)[C@H]2NC(=O)c2ccc(Cl)cc2)c(F)c1` [Example 497] were 1.2 nM and 720 nM.
For the compound `COc1cc(C2CCN(C)CC2)nc(N2C[C@@H](c3c(F)cc(OC)cc3F)[C@H](NC(=O)c3ccc(OC(F)F)cc3)C2=O)c1` [Example 498], the EC50 was 1.8 nM on human FPR2 and over 5000 nM at human FPR1.
The corresponding values for `COc1cc(F)c([C@@H]2CN(c3cc(OCC4CCCO4)ncn3)C(=O)[C@H]2NC(=O)c2ccc(Cl)cc2)c(F)c1` (some centres unmarked) [Example 499] are 29 nM and 60 nM.
The corresponding values for `COc1cc(F)c([C@@H]2CN(c3cccc(C4=CNCCC4)n3)C(=O)[C@H]2NC(=O)c2ccc(OC(F)F)cc2)c(F)c1` [Example 500] are 2.2 nM and 710 nM.
The corresponding values for `COc1cc(F)c([C@@H]2CN(c3cccc(C4CCCN(CCO)C4)n3)C(=O)[C@H]2NC(=O)c2ccc(OC(F)F)cc2)c(F)c1` (some centres unmarked) [Example 501] are 1.6 nM and 2500 nM.
For the compound `COc1cc(F)c([C@@H]2CN(c3cccc(C4CCCN(CCO)C4)n3)C(=O)[C@H]2NC(=O)c2ccc(OC(F)F)cc2)c(F)c1` (some centres unmarked) [Example 502], the EC50 at human FPR2 was 7.7 nM; at human FPR1, 900 nM.
Turning to `COc1cc(F)c([C@H]2[C@H](NC(=O)c3ccc(Cl)cc3)C(=O)N(c3cncn(CC(F)F)c3=O)[C@@H]2C)c(F)c1` [Example 503], the concentration for a half-maximal effect (EC50) stood at 4.3 nM at human FPR2 and 3500 nM at human FPR1.
As for `COc1cc(C2CCN(CCO)CC2)nc(N2C(=O)[C@@H](NC(=O)c3ccc(OC(F)F)cc3)[C@H](c3c(F)cc(OC)cc3F)[C@@H]2C)c1` [Example 504], the results for the half-maximal effective concentration (EC50) on human FPR2 and on human FPR1 were 2.2 nM and 3300 nM, respectively.
On to `COc1cc(F)c([C@H]2[C@H](NC(=O)c3ccc(OC(F)F)cc3)C(=O)N(c3cccc(P(C)(C)=O)n3)[C@H]2C)c(F)c1` [Example 505], for which the values for the concentration for a half-maximal effect (EC50) at human FPR2 and on human FPR1 were 100 nM and 3400 nM, respectively.
Taken in the same sequence, the figures for `COc1cc(F)c([C@@H]2CN(c3c(C)ccn(C4CCNCC4)c3=O)C(=O)[C@H]2NC(=O)c2ccc(Cl)cc2)c(F)c1` [Example 506] were 0.8 nM and 68 nM.
Turning to `COc1cc(F)c([C@@H]2CN(c3c(C)ccn(C4CCN(C)C4)c3=O)C(=O)[C@H]2NC(=O)c2ccc(OC(F)F)cc2)c(F)c1` (some centres unmarked) [Example 507], the 50% effective concentration (EC50) at human FPR2 worked out at 2.3 nM; at human FPR1, 150 nM.
Taken in the same sequence, the figures for `COc1cc(F)c([C@@H]2CN(c3c(C)ccn(C4CCN(C)C4)c3=O)C(=O)[C@H]2NC(=O)c2ccc(OC(F)F)cc2)c(F)c1` (some centres unmarked) [Example 508] were 6.4 nM and 110 nM.
With `COc1cc(F)c([C@@H]2CN(c3cc(OCC4CCOC4)ncn3)C(=O)[C@H]2NC(=O)c2ccc(Cl)cc2)c(F)c1` (some centres unmarked) [Example 509], the 50% effective concentration (EC50) on human FPR2 turned out to be 41 nM; on human FPR1 it was 79 nM.
`COc1cc(F)c([C@@H]2CN(c3cccc(P(C)(C)=O)n3)C(=O)[C@H]2NC(=O)c2ccc(Cl)cc2)c(F)c1` [Example 511]: the concentration giving a half-maximal response (EC50) at human FPR2 stood at 66 nM; at human FPR1 it was 390 nM.
